Measurements published in ChEMBL document CHEMBL3045868, “Synthesis and antibacterial activities of para-alkoxy phenyl--ketoaldehyde derivatives” (Med Chem Res, 2013).

Legend:
Assay type in all cases: functional
Staphylococcus aureus [1] = assay: Bactericidal activity against methicillin-resistant Staphylococcus aureus isolate 3 after 24 hr; settings: isolate 3, 24 h
Staphylococcus aureus [2] = assay: Bactericidal activity against methicillin-resistant Staphylococcus aureus isolate 4 after 24 hr; settings: isolate 4, 24 h
Staphylococcus aureus [3] = assay: Antibacterial activity against Staphylococcus aureus clinical isolate 4 assessed as growth inhibition after 16 to 18 hr by NCCLS agar dilution method
Staphylococcus aureus [4] = assay: Antibacterial activity against Staphylococcus aureus clinical isolate 18 assessed as growth inhibition at pH 9 after 16 to 18 hr by NCCLS agar dilution method
Staphylococcus aureus [5] = assay: Antibacterial activity against Staphylococcus aureus ATCC 25923 assessed as growth inhibition after 16 to 18 hr by NCCLS agar dilution method
Staphylococcus aureus [6] = assay: Antibacterial activity against methicillin-resistant Staphylococcus aureus isolate 1 assessed as growth inhibition after 16 to 18 hr by NCCLS agar dilution method
Staphylococcus aureus [7] = assay: Antibacterial activity against Staphylococcus aureus clinical isolate 16 assessed as growth inhibition at pH 7 after 16 to 18 hr by NCCLS agar dilution method
Staphylococcus aureus [8] = assay: Antibacterial activity against Staphylococcus aureus clinical isolate 1 assessed as growth inhibition at pH 9 after 16 to 18 hr by NCCLS agar dilution method
Helicobacter pylori [9] = assay: Antibacterial activity against Helicobacter pylori 05-2 assessed as growth inhibition after 16 to 18 hr NCCLS agar dilution method
Staphylococcus aureus [10] = assay: Antibacterial activity against methicillin-resistant Staphylococcus aureus isolate 5 assessed as growth inhibition after 16 to 18 hr by NCCLS agar dilution method
Staphylococcus aureus [11] = assay: Antibacterial activity against Staphylococcus aureus clinical isolate 9 assessed as growth inhibition at pH 5 after 16 to 18 hr by NCCLS agar dilution method
Helicobacter pylori [12] = assay: Antibacterial activity against Helicobacter pylori 06-5 assessed as growth inhibition after 16 to 18 hr NCCLS agar dilution method
Staphylococcus aureus [13] = assay: Antibacterial activity against Staphylococcus aureus clinical isolate assessed as growth inhibition at pH 7 after 16 to 18 hr by NCCLS agar dilution method
Staphylococcus aureus [14] = assay: Antibacterial activity against Staphylococcus aureus clinical isolate 12 assessed as growth inhibition at pH 7 after 16 to 18 hr by NCCLS agar dilution method
Staphylococcus aureus [15] = assay: Antibacterial activity against Staphylococcus aureus clinical isolate 10 assessed as growth inhibition after 16 to 18 hr by NCCLS agar dilution method
Staphylococcus aureus [16] = assay: Antibacterial activity against Staphylococcus aureus clinical isolate 21 assessed as growth inhibition at pH 7 after 16 to 18 hr by NCCLS agar dilution method
Staphylococcus aureus [17] = assay: Antibacterial activity against Staphylococcus aureus clinical isolate 15 assessed as growth inhibition at pH 9 after 16 to 18 hr by NCCLS agar dilution method
Staphylococcus aureus [18] = assay: Bactericidal activity against Staphylococcus aureus clinical isolate 2 after 24 hr; settings: isolate 2, 24 h
Staphylococcus aureus [19] = assay: Antibacterial activity against Staphylococcus aureus clinical isolate 21 assessed as growth inhibition at pH 5 after 16 to 18 hr by NCCLS agar dilution method
Helicobacter pylori [20] = assay: Antibacterial activity against Helicobacter pylori 06-2 assessed as growth inhibition after 16 to 18 hr NCCLS agar dilution method
Staphylococcus aureus [21] = assay: Antibacterial activity against Staphylococcus aureus clinical isolate 15 assessed as growth inhibition at pH 7 after 16 to 18 hr by NCCLS agar dilution method
Staphylococcus aureus [22] = assay: Antibacterial activity against methicillin-resistant Staphylococcus aureus isolate 4 assessed as growth inhibition after 16 to 18 hr by NCCLS agar dilution method
Staphylococcus aureus [23] = assay: Antibacterial activity against Staphylococcus aureus clinical isolate 24 assessed as growth inhibition at pH 7 after 16 to 18 hr by NCCLS agar dilution method
Staphylococcus aureus [24] = assay: Bactericidal activity against Staphylococcus aureus clinical isolate 9 after 24 hr; settings: isolate 9, 24 h
Staphylococcus aureus [25] = assay: Antibacterial activity against Staphylococcus aureus clinical isolate 14 assessed as growth inhibition at pH 9 after 16 to 18 hr by NCCLS agar dilution method
Staphylococcus aureus [26] = assay: Antibacterial activity against Staphylococcus aureus clinical isolate 17 assessed as growth inhibition at pH 9 after 16 to 18 hr by NCCLS agar dilution method
Staphylococcus aureus [27] = assay: Bactericidal activity against methicillin-resistant Staphylococcus aureus isolate 1 after 24 hr; settings: isolate 1, 24 h
Staphylococcus aureus [28] = assay: Antibacterial activity against Staphylococcus aureus clinical isolate 20 assessed as growth inhibition at pH 7 after 16 to 18 hr by NCCLS agar dilution method
Staphylococcus aureus [29] = assay: Antibacterial activity against Staphylococcus aureus clinical isolate 8 assessed as growth inhibition at pH 7 after 16 to 18 hr by NCCLS agar dilution method
Staphylococcus aureus [30] = assay: Antibacterial activity against Staphylococcus aureus clinical isolate 13 assessed as growth inhibition at pH 9 after 16 to 18 hr by NCCLS agar dilution method
Staphylococcus aureus [31] = assay: Antibacterial activity against Staphylococcus aureus clinical isolate 2 assessed as growth inhibition at pH 9 after 16 to 18 hr by NCCLS agar dilution method
Helicobacter pylori [32] = assay: Antibacterial activity against Helicobacter pylori assessed as growth inhibition after 16 to 18 hr NCCLS agar dilution method
Staphylococcus aureus [33] = assay: Antibacterial activity against Staphylococcus aureus clinical isolate 7 assessed as growth inhibition at pH 9 after 16 to 18 hr by NCCLS agar dilution method
Staphylococcus aureus [34] = assay: Antibacterial activity against Staphylococcus aureus clinical isolate 24 assessed as growth inhibition at pH 5 after 16 to 18 hr by NCCLS agar dilution method
Staphylococcus aureus [35] = assay: Antibacterial activity against Staphylococcus aureus clinical isolate 5 assessed as growth inhibition at pH 5 after 16 to 18 hr by NCCLS agar dilution method
Staphylococcus aureus [36] = assay: Antibacterial activity against Staphylococcus aureus clinical isolate 6 assessed as growth inhibition at pH 5 after 16 to 18 hr by NCCLS agar dilution method
Staphylococcus aureus [37] = assay: Antibacterial activity against Staphylococcus aureus clinical isolate 11 assessed as growth inhibition at pH 5 after 16 to 18 hr by NCCLS agar dilution method
Staphylococcus aureus [38] = assay: Antibacterial activity against Staphylococcus aureus clinical isolate 4 assessed as growth inhibition at pH 7 after 16 to 18 hr by NCCLS agar dilution method
Staphylococcus aureus [39] = assay: Antibacterial activity against Staphylococcus aureus clinical isolate assessed as growth inhibition at pH 5 after 16 to 18 hr by NCCLS agar dilution method
Staphylococcus aureus [40] = assay: Antibacterial activity against Staphylococcus aureus clinical isolate 14 assessed as growth inhibition at pH 5 after 16 to 18 hr by NCCLS agar dilution method
Staphylococcus aureus [41] = assay: Antibacterial activity against Staphylococcus aureus clinical isolate 23 assessed as growth inhibition at pH 5 after 16 to 18 hr by NCCLS agar dilution method
Staphylococcus aureus [42] = assay: Antibacterial activity against Staphylococcus aureus clinical isolate 9 assessed as growth inhibition after 16 to 18 hr by NCCLS agar dilution method
Helicobacter pylori [43] = assay: Antibacterial activity against Helicobacter pylori 05-14 assessed as growth inhibition after 16 to 18 hr NCCLS agar dilution method

CO/N=C/CC(=O)c1ccc(OC)cc1
8 µg/mL: MIC (Staphylococcus aureus [6]) | MIC (Staphylococcus aureus [7]) | MIC (Staphylococcus aureus [10]) | MIC (Staphylococcus aureus [17]) | MIC (Staphylococcus aureus [21]) | MIC (Staphylococcus aureus [22]) | MIC (Staphylococcus aureus [23]) | MIC (Staphylococcus aureus [25]) | MIC (Staphylococcus aureus [30]) | MIC (Staphylococcus aureus [31]) | MIC (Staphylococcus aureus [33])
256 µg/mL: MBC (Staphylococcus aureus [1]) | MBC (Staphylococcus aureus [2])
32 µg/mL: MIC (Staphylococcus aureus [11]) | MIC (Helicobacter pylori [12]) | MIC90 (Staphylococcus aureus [13]) | MIC (Staphylococcus aureus [14]) | MIC (Staphylococcus aureus [19]) | MIC (Helicobacter pylori [20]) | MIC50 (Helicobacter pylori [32]) | MIC90 (Helicobacter pylori [32]) | MIC (Staphylococcus aureus [37]) | MIC50 (Staphylococcus aureus [39]) | MIC (Staphylococcus aureus [40])
128 µg/mL: MBC (Staphylococcus aureus [24]) | MBC (Staphylococcus aureus [27])
16 µg/mL: MIC (Staphylococcus aureus [3]) | MIC (Staphylococcus aureus [4]) | MIC (Staphylococcus aureus [8]) | MIC (Helicobacter pylori [9]) | MIC50 (Staphylococcus aureus [13]) | MIC (Staphylococcus aureus [15]) | MIC (Staphylococcus aureus [16]) | MIC (Staphylococcus aureus [26]) | MIC (Staphylococcus aureus [28]) | MIC (Staphylococcus aureus [29]) | MIC (Staphylococcus aureus [35]) | MIC (Staphylococcus aureus [38]) | MIC (Staphylococcus aureus [41]) | MIC (Staphylococcus aureus [42]) | MIC (Helicobacter pylori [43])
2 µg/mL: MIC (Staphylococcus aureus [5])
64 µg/mL: MBC (Staphylococcus aureus [18]) | MIC (Staphylococcus aureus [34]) | MIC (Staphylococcus aureus [36]) | MIC90 (Staphylococcus aureus [39])
